Measured values reported in US20250332279A1, “PHARMACEUTICAL COMPOSITION AND METHOD FOR TREATING GLIOBLASTOMAS” (National Cheng Kung University, priority 2024, published 2025).

Test system: U87MG intracranial brain tumors
Test: In vivo antitumor efficiency of gene silencing-enhanced radiotherapy
Set-up: species or system mice
Procedure: For the animal experiments, luciferase expression plasmid-transfected U87MG cell-implanted pathogen-free male NU/NU mice (5-7 weeks old, 20-25 g, from BioLASCO, Taiwan) were employed in this study. U87MG cells were cultured at 37° C. with 5% CO2 in M EM with 10% fetal bovine serum and 1% penicillin/streptomycin (Invitrogen). Mice were anaesthetized with 2% isoflurane gas and immobilized on a stereotactic frame to implant U87MG cells. A sagittal incision in the skin overlying the calvarium was created. U87MG cell implantation was performed by creating a hole in the exposed cranium 1.5 mm anterior and 2 mm lateral to the bregma using a 27G needle. A total volume of 5 μL of U87MG cell suspension (1×10^5 cell/μL) was injected at a depth of 3 mm from the brain surface over a 5 min period. The needle was withdrawn over 2 min. MRI was performed to monitor brain tumor growth for 7 days after tumor cell implantation.
The details of the CE D procedure are as described in our previous study. Briefly, infusion cannulas were fabricated with silica tubing (Polymicro Technologies, Phoenix, AZ, USA) fused to a 0.1 mL syringe (Plastic One, Roanoke, VA, USA) with a 0.5 mm stepped-tip needle that protruded from the silica guide base. The treatment agents (VLPs or drugs) were loaded into the syringes and attached to a microinfusion pump (Bioanalytical Systems, Lafayette, IN, USA). The syringe with a silica cannula was mounted onto a stereotactic holder and then lowered through a puncture hole made in the skull to the implanted tumor. The sample solution was infused at a rate of 1 μL/min until a volume of 5 μL had been delivered, and the cannula was removed 2 min later.
All animal experiments were approved by the Animal Committee of Chang Gung University and adhered to the experimental animal care guidelines (IACUC NO. CGU106-036). Mice were raised in a room with a thermostat at 26° C. Nu/Nu mice weighing approximately 25-30 g (5-6 weeks old) were tested to confirm the efficacy of the proposed approach. Intracranial brain tumors were induced by transplantation of U87MG cells into mouse brains. Briefly, cultured U87MG cells (5×10^5 cells/mouse) were injected over a 2 min period into the brain using a syringe, and needle withdrawal was conducted over another period of 0.5 min. A total of 50 mice were used, and the experiments were divided into five groups. In Group 1 (n=10), the mice received no further treatment after transplantation of U87MG cells, and these mice served as the control. In Group 2 (n=10), the mice received TrQβ VLPs (5 μM) via CED infusion two times (every 7 days) after 7 days of U87MG cell transplantation. […] The intracranial tumor volume in mice was measured by MR imaging. The survival time was calculated from the day of U87MG cell inoculation (0 day) to the day of death. […]

[1] = CED infusion followed by 2Gy X-ray irradiation

N.N.O=C([O-])C1(C(=O)[O-])CCC1.[Pt+2] [carboplatin]
median survival [1]: 51 days | mice survived over 54 days [1]: 10% | tumor volume by MRI (Day 34, CED infusion followed by 2Gy X-ray irradiation): 18.9±17.8 mm3 | tumor volume by MRI (Day 41, CED infusion followed by 2Gy X-ray irradiation): 55.2±36.5 mm3
